Results from PubChem BioAssay AID248 (DTP/NCI, 2004).
Toxic doses and inconclusive results are not listed.

Test system: L1210 leukemia ip in BDF1 mice, survival T/C
Experiment: NCI In Vivo Anticancer Drug Screen. Data for tumor model L1210 Leukemia (intraperitoneal) in B6D2F1 (BDF1) mice
Conditions: endpoint: mean survival time, higher = longer survival
In short: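 Transplanted-tumor mice were given test agent; controls received vehicle only. Survival readings from the two groups were divided (treated over control).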

[1] = dose: 100.0 mg/kg/injection, schedule: Q04DX003 (ip), vehicle: Klucel (hydroxypropylcellulose) (HPC)
[2] = dose: 200.0 mg/kg/injection, schedule: Q04DX003 (ip), vehicle: Klucel (hydroxypropylcellulose) (HPC)
[3] = dose: 400.0 mg/kg/injection, schedule: Q04DX003 (ip), vehicle: Klucel (hydroxypropylcellulose) (HPC)
[4] = dose: 100.0 mg/kg/injection, schedule: Q04DX003 (ip), vehicle: saline with Tween-80
[5] = dose: 200.0 mg/kg/injection, schedule: Q04DX003 (ip), vehicle: saline with Tween-80
[6] = dose: 400.0 mg/kg/injection, schedule: Q04DX003 (ip), vehicle: saline with Tween-80
[7] = dose: 5.0 mg/kg/injection, schedule: Q01DX001 (ip), vehicle: saline
[8] = dose: 10.0 mg/kg/injection, schedule: Q01DX001 (ip), vehicle: saline
[9] = dose: 20.0 mg/kg/injection, schedule: Q01DX001 (ip), vehicle: saline
[10] = dose: 40.0 mg/kg/injection, schedule: Q01DX001 (ip), vehicle: saline
[11] = dose: 25.0 mg/kg/injection, schedule: Q04DX003 (ip), vehicle: saline
[12] = dose: 50.0 mg/kg/injection, schedule: Q01DX001 (ip), vehicle: saline
[13] = dose: 50.0 mg/kg/injection, schedule: Q04DX003 (ip), vehicle: saline
[14] = dose: 50.0 mg/kg/injection, schedule: Q01DX009 (ip), vehicle: saline with Tween-80
[15] = dose: 100.0 mg/kg/injection, schedule: Q01DX009 (ip), vehicle: saline with Tween-80
[16] = dose: 200.0 mg/kg/injection, schedule: Q01DX009 (ip), vehicle: saline with Tween-80
[17] = dose: 400.0 mg/kg/injection, schedule: Q01DX009 (ip), vehicle: saline with Tween-80
[18] = dose: 100.0 mg/kg/injection, schedule: Q01DX009 (ip), vehicle: saline
[19] = dose: 400.0 mg/kg/injection, schedule: Q01DX009 (ip), vehicle: saline
[20] = dose: 100.0 mg/kg/injection, schedule: Q01DX001 (ip), vehicle: saline
[21] = dose: 200.0 mg/kg/injection, schedule: Q01DX001 (ip), vehicle: saline
[22] = dose: 400.0 mg/kg/injection, schedule: Q01DX001 (ip), vehicle: saline

SMILES: Cc1ccc(NC(=S)N(C)C)cc1Cl
- T/C (dose: 100.0 mg/kg/injection, schedule: Q01DX009 (ip), vehicle: Klucel (hydroxypropylcellulose) (HPC)): 97 % of control
- T/C [1]: 104 % of control
- T/C (dose: 200.0 mg/kg/injection, schedule: Q01DX009 (ip), vehicle: Klucel (hydroxypropylcellulose) (HPC)): 101 % of control
- T/C [2]: 97 % of control
- T/C (dose: 400.0 mg/kg/injection, schedule: Q01DX009 (ip), vehicle: Klucel (hydroxypropylcellulose) (HPC)): 100 % of control
- T/C [3]: 104 % of control

SMILES: CCOC(=O)c1ccccc1N(O)C(=O)Nc1ccc(Cl)cc1
- T/C [4]: 100 % of control
- T/C [5]: 105 % of control
- T/C [6]: 103 % of control

SMILES: O=c1ccc2cc(Br)ccc2o1
- T/C [1]: 97 % of control
- T/C [2]: 95 % of control
- T/C [3]: 97 % of control

SMILES: O=C(O)CN(CC(=O)O)Cc1ccccc1
- T/C [7]: 102 % of control
- T/C [8]: 102 % of control
- T/C [9]: 100 % of control
- T/C [10]: 100 % of control

SMILES: CC(C)C(=O)CC(=O)C(C)C.CC(C)C(=O)CC(=O)C(C)C.[Cu]
- T/C (dose: 12.0 mg/kg/injection, schedule: Q01DX001 (ip), vehicle: saline): 93 % of control
- T/C (dose: 12.0 mg/kg/injection, schedule: Q04DX003 (ip), vehicle: saline): 90 % of control
- T/C (dose: 25.0 mg/kg/injection, schedule: Q01DX001 (ip), vehicle: saline): 98 % of control
- T/C [11]: 98 % of control
- T/C [12]: 98 % of control
- T/C [13]: 96 % of control

SMILES: COc1ccc(NC(=O)CCC(=O)O)cc1
- T/C [14]: 110 % of control
- T/C (dose: 50.0 mg/kg/injection, schedule: Q04DX003 (ip), vehicle: saline with Tween-80): 96 % of control
- T/C [15]: 108 % of control
- T/C [4]: 100 % of control
- T/C [16]: 100 % of control
- T/C [5]: 100 % of control
- T/C [17]: 107 % of control
- T/C [6]: 94 % of control

SMILES: C=CCc1ccc(OC)c(OC)c1
- T/C (dose: 100.0 mg/kg/injection, schedule: Q04DX002 (ip), vehicle: saline): 97 % of control
- T/C (dose: 200.0 mg/kg/injection, schedule: Q04DX002 (ip), vehicle: saline): 95 % of control
- T/C (dose: 400.0 mg/kg/injection, schedule: Q04DX002 (ip), vehicle: saline): 104 % of control

SMILES: CCCCNC(=O)C(C)S(=O)(=O)c1ccc(N)cc1 (stereo not drawn)
- T/C [4]: 98 % of control
- T/C [5]: 96 % of control
- T/C [6]: 102 % of control

SMILES: CCOC(=O)N[n+]1ccc(C)cc1
- T/C (dose: 75.0 mg/kg/injection, schedule: Q01DX001 (ip), vehicle: other): 101 % of control
- T/C (dose: 150.0 mg/kg/injection, schedule: Q01DX001 (ip), vehicle: other): 101 % of control
- T/C (dose: 300.0 mg/kg/injection, schedule: Q01DX001 (ip), vehicle: other): 105 % of control

SMILES: CCCCNCCC(SSSC(CCNCCCC)c1ccc(Cl)cc1)c1ccc(Cl)cc1 (stereo not drawn)
- T/C (dose: 6.25 mg/kg/injection, schedule: Q04DX003 (ip), vehicle: saline with Tween-80): 103 % of control
- T/C (dose: 12.5 mg/kg/injection, schedule: Q04DX003 (ip), vehicle: saline with Tween-80): 88 % of control
- T/C (dose: 25.0 mg/kg/injection, schedule: Q04DX003 (ip), vehicle: saline with Tween-80): 91 % of control

SMILES: Cc1cc(C)c(N(CC(=O)O)S(=O)(=O)c2ccccc2)c(C)c1N(CC(=O)O)S(=O)(=O)c1ccccc1
- T/C [15]: 101 % of control
- T/C [16]: 98 % of control
- T/C [17]: 97 % of control

SMILES: O=C(O)c1ccc(NC(=O)c2ccc(C(=O)Nc3ccc(C(=O)O)cc3)cc2)cc1
- T/C (dose: 15.0 mg/kg/injection, schedule: Q01DX Z (ip), vehicle: methylcellulose (MC)): 101 % of control
- T/C (dose: 60.0 mg/kg/injection, schedule: Q01DX Z (ip), vehicle: methylcellulose (MC)): 98 % of control
- T/C (dose: 120.0 mg/kg/injection, schedule: Q01DX Z (ip), vehicle: methylcellulose (MC)): 95 % of control

SMILES: O=C1/C(=C\c2ccccc2)COC/C1=C\c1ccccc1
- T/C [18]: 94 % of control
- T/C [19]: 87 % of control

SMILES: COc1nccnc1NS(=O)(=O)c1ccc(N)cc1
- T/C [20]: 95 % of control
- T/C [18]: 92 % of control
- T/C [21]: 96 % of control
- T/C (dose: 200.0 mg/kg/injection, schedule: Q01DX009 (ip), vehicle: saline): 106 % of control
- T/C [22]: 102 % of control
- T/C [19]: 92 % of control

SMILES: c1ccc(-c2[nH]c(-c3ccccc3)c(-c3ccccc3)c2-c2ccccc2)cc1
- T/C [14]: 102 % of control
- T/C [15]: 95 % of control
- T/C [16]: 95 % of control

SMILES: CCCCCCCCCCCCCCCOc1ccc2ccccc2c1
- T/C (dose: 100.0 mg/kg/injection, schedule: Q01DX001 (ip), vehicle: Klucel (hydroxypropylcellulose) (HPC)): 326 % of control
- T/C (dose: 200.0 mg/kg/injection, schedule: Q01DX001 (ip), vehicle: Klucel (hydroxypropylcellulose) (HPC)): 326 % of control
- T/C (dose: 400.0 mg/kg/injection, schedule: Q01DX001 (ip), vehicle: Klucel (hydroxypropylcellulose) (HPC)): 326 % of control

SMILES: O=C(CCBr)N1CCCN(C(=O)CCBr)CC1
- T/C (dose: 106.0 mg/kg/injection, schedule: Q01DX Z (ip), vehicle: carboxymethylcellulose (CMC)): 114 % of control
- T/C (dose: 160.0 mg/kg/injection, schedule: Q01DX Z (ip), vehicle: carboxymethylcellulose (CMC)): 119 % of control

SMILES: [Cl][Sn]([CH2]c1ccccc1)([CH2]c1ccccc1)[CH2]c1ccccc1
- T/C (dose: 0.39 mg/kg/injection, schedule: Q04DX002 (ip), vehicle: saline with Tween-80): 94 % of control
- T/C (dose: 0.78 mg/kg/injection, schedule: Q04DX002 (ip), vehicle: saline with Tween-80): 106 % of control
- T/C (dose: 1.56 mg/kg/injection, schedule: Q04DX002 (ip), vehicle: saline with Tween-80): 108 % of control
- T/C (dose: 3.13 mg/kg/injection, schedule: Q04DX002 (ip), vehicle: saline with Tween-80): 108 % of control

SMILES: O=C(O)c1ccccc1CCl
- T/C [15]: 101 % of control
- T/C [16]: 108 % of control
- T/C [17]: 95 % of control

SMILES: O=C(OCCOCCN1CCCCC1)N1c2ccccc2Sc2cccnc21
- T/C [7]: 104 % of control
- T/C (dose: 6.25 mg/kg/injection, schedule: Q01DX009 (ip), vehicle: saline): 102 % of control
- T/C [8]: 101 % of control
- T/C (dose: 12.5 mg/kg/injection, schedule: Q01DX009 (ip), vehicle: saline): 107 % of control
- T/C [9]: 98 % of control
- T/C (dose: 25.0 mg/kg/injection, schedule: Q01DX009 (ip), vehicle: saline): 103 % of control
- T/C [11]: 106 % of control
- T/C [10]: 101 % of control
- T/C (dose: 50.0 mg/kg/injection, schedule: Q01DX009 (ip), vehicle: saline): 101 % of control
- T/C [13]: 111 % of control
- T/C (dose: 80.0 mg/kg/injection, schedule: Q01DX001 (ip), vehicle: saline): 101 % of control
- T/C [20]: 98 % of control
- T/C (dose: 100.0 mg/kg/injection, schedule: Q04DX003 (ip), vehicle: saline): 106 % of control

SMILES: COc1cc(Cn2cccc2C=O)c([N+](=O)[O-])cc1OC
- T/C (dose: 25.0 mg/kg/injection, schedule: Q04DX002 (ip), vehicle: Klucel (hydroxypropylcellulose) (HPC)): 89 % of control
- T/C (dose: 50.0 mg/kg/injection, schedule: Q04DX002 (ip), vehicle: Klucel (hydroxypropylcellulose) (HPC)): 101 % of control
- T/C (dose: 100.0 mg/kg/injection, schedule: Q04DX002 (ip), vehicle: Klucel (hydroxypropylcellulose) (HPC)): 86 % of control

SMILES: CC(=O)C(C)CCOC1(C)OCCC1C (stereo not drawn)
- T/C [12]: 103 % of control
- T/C [20]: 116 % of control
- T/C [21]: 100 % of control
- T/C [22]: 103 % of control

SMILES: Fc1nc2nc(C(F)(F)F)[nH]c2nc1F
- T/C (dose: 25.0 mg/kg/injection, schedule: Q01DX009 (ip), vehicle: saline with Tween-80): 93 % of control
- T/C [14]: 90 % of control
- T/C [15]: 95 % of control
- T/C [18]: 103 % of control
- T/C [4]: 95 % of control
- T/C [5]: 105 % of control
- T/C [6]: 90 % of control

SMILES: O=N[O-].O=N[O-].O=N[O-].O=N[O-].O=N[O-].O=N[O-].[Co+3].[Co].[NH2-].[NH2-].[NH2-].[NH2-].[NH2-].[NH2-]
- T/C (dose: 25.0 mg/kg/injection, schedule: Q04DX002 (ip), vehicle: saline with Tween-80): 102 % of control
- T/C (dose: 50.0 mg/kg/injection, schedule: Q04DX002 (ip), vehicle: saline with Tween-80): 115 % of control

SMILES: CN=C(N)N
- T/C [4]: 102 % of control
- T/C [5]: 101 % of control
- T/C [6]: 103 % of control
